Measured values taken from patent publication US20210330611A1, “THERAPY FOR NEUROLOGICAL DISEASES/DISORDERS” (priority 2020, published 2021).
Counter-ions that a name gives are not always drawn. Like-named read-outs stand apart in the source and are kept apart here. Where a SMILES comes first, the peptide text is derived from it. [ ]: non-standard residue; d: D form. pGlu = O=C1CC[C@@H](C(=O)O)N1; Thz = O=C(O)[C@@H]1CSCN1

How the values were obtained:
[1] = system: fibrin-induced microglia activation; test: Image-based assay of fibrin-induced microglia activation (HTS and dose response); format: cell-based, rat; settings: primary microglia HTS, fibrin stimulation; for inhibition at 10 µM: Rattus norvegicus, Microglia, read-out: Fibrin % inhibition
[2] = system: primary rat microglia; test: Cell toxicity (dead cells, size <150 μm2) in coated fibrin (cFib) assay; settings: primary microglia HTS;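 note: share of dead cells sized under 150 µm2 at 10 µM in fibrin-stimulated microglia HTS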
[3] = system: LPS-induced microglia activation; test: Image-based assay of LPS-induced microglia activation (HTS and dose response); format: cell-based, rat; settings: for inhibition at 10 µM: Rattus norvegicus, Microglia, read-out: LPS % inhibition
[4] = system: fibrin- and LPS-induced microglia activation; test: cells; format: cell-based, rat
[5] = system: primary rat microglia
[6] = fibrin assay, dead cells (size <150 μm2)
[7] = primary microglia HTS, LPS stimulation, compounds at 10 μM
[8] = quadrant by fibrin and LPS inhibition, HTS at 10 μM
[9] = cell size >800 μm2 as marker of activation
[10] = fibrin stimulation, cell size <150 μm2 as marker of toxicity
[11] = classification by fibrin and LPS inhibition in HTS
[12] = fibrin assay, dead cells (size <150 μm2), compounds at 10 μM
[13] = classification by fibrin and LPS inhibition, HTS at 10 μM

Compound | inhibition at 10 µM ([1]; compounds at 10 μM) [%] | inhibition at 10 µM [3, 7] [%] | LPS % cell toxicity ([5]; rat) [%] | inhibition at 10 µM [1, 9] [%] | Fibrin % cell toxicity [2, 10] [%] | inhibition at 10 µM ([3]; 48 h) [%] | Quadrant (FIG. 5b) [4, 11] | Fibrin % cell toxicity [2, 12] [%] | Quadrant (FIG. 5b) [4, 13] | also measured
CC(=O)Nc1ccc(CC(=O)O)cc1 [Actarit] | 11 | 9 | 0 | – | – | – | – | – | – | Fibrin % cell toxicity [2, 6]: 1%; Quadrant (FIG. 5b) [4, 8]: Q4
Cn1c([N+](=O)[O-])cnc1COC(N)=O [Ronidazole] | – | – | 0 | 31 | 1 | 20 | Q4 | – | – | –
CCC1(C2=NCCN2)Cc2ccccc2O1 (stereo not shown) [Efaroxan, Efaroxan Hydrochloride] | – | – | – | – | – | – | – | 1 | Q4 | Fibrin % inhibition ([1]; compounds at 10 μM): 1%; LPS % inhibition [3, 7]: 5%; LPS % cell toxicity [5]: 0%
CCN(CC)C(=O)c1ccc(O)c(OC)c1 [Etamivan] | -16 | 16 | 0 | – | – | – | – | 1 | Q4 | –
CC1CC(OC(=O)C(O)c2ccccc2)CC(C)(C)N1C (stereo not shown) [Eucatropine Hydrochloride] | 1 | 24 | 0 | – | – | – | – | 1 | Q4 | –
CC(=O)Nc1ccc(OC(C)=O)cc1 [Diacetamate] | -25 | 21 | 0 | – | – | – | – | 1 | Q4 | –
O=[N+]([O-])c1cc([As](=O)(O)O)ccc1O [Roxarsone] | – | – | 1 | – | 1 | – | Q4 | – | – | Fibrin % inhibition [1, 9]: −18%; LPS % inhibition [3]: 17%
CC(O)(P(=O)(O)O)P(=O)(O)O [Etidronic acid] | -16 | 18 | 0 | – | – | – | – | 1 | Q4 | –
Cc1cnc(C(=O)O)c[n+]1[O-] [Acipimox] | -11 | 20 | 0 | – | – | – | – | – | – | Fibrin % cell toxicity [2, 6]: 1%; Quadrant (FIG. 5b) [4, 8]: Q4
COc1ccc(-c2ccc3cc(C(=O)O)ccc3c2)cc1C12CC3CC(CC(C3)C1)C2 [Adapalene] | -12 | 45 | 4 | – | – | – | – | – | – | Fibrin % cell toxicity [2, 6]: 2%; Quadrant (FIG. 5b) [4, 8]: Q4
Nc1nc2c(ncn2COCCO)c(=O)[nH]1 [Aciclovir] | -20 | 3 | 1 | – | – | – | – | – | – | Fibrin % cell toxicity [2, 6]: 1%; Quadrant (FIG. 5b) [4, 8]: Q4
Clc1ccc(C(Cn2ccnc2)OCc2csc3c(Cl)cccc23)c(Cl)c1 (stereo not shown) [Sertaconazole] | – | – | 0 | -25 | 1 | 11 | Q4 | – | – | –
CC[C@H]1OC(=O)[C@H](C)[C@@H](O[C@H]2C[C@@](C)(OC)[C@@H](O)[C@H](C)O2)[C@H](C)[C@@H](O[C@@H]2O[C@H](C)C[C@H](N(C)C)[C@H]2O)[C@](C)(O)C[C@@H](C)[C@@H]2N[C@@H](COCCOC)O[C@H]([C@H]2C)[C@]1(C)O [Dirithromycin] | 7 | 27 | 1 | – | – | – | – | 1 | Q4 | –
CCCN(CCC)C(=O)C(CCC(=O)O)NC(=O)c1ccccc1 (stereo not shown) [Proglumide] | – | – | 0 | -4 | 1 | -1 | Q4 | – | – | –
COc1ccc(C2CNC(=O)C2)cc1OC1CCCC1 (stereo not shown) [Rolipram] | – | – | 0 | 11 | 0 | 11 | Q4 | – | – | –
COc1ccc(-c2cc(=O)c3c(O)cc(O[C@@H]4O[C@H](CO[C@@H]5O[C@@H](C)[C@H](O)[C@@H](O)[C@H]5O)[C@@H](O)[C@H](O)[C@H]4O)cc3o2)cc1O [Diosmin] | -12 | 10 | 0 | – | – | – | – | 1 | Q4 | –
C=CCN=C=S [Allylisothiocyanate] | 11 | 18 | 0 | – | – | – | – | – | – | Fibrin % cell toxicity [2, 6]: 1%; Quadrant (FIG. 5b) [4, 8]: Q4
COCCCOc1cc(C[C@@H](C[C@H](N)[C@@H](O)C[C@H](C(=O)NCC(C)(C)C(N)=O)C(C)C)C(C)C)ccc1OC [Aliskiren] | 2 | 21 | 0 | – | – | – | – | – | – | Fibrin % cell toxicity [2, 6]: 1%; Quadrant (FIG. 5b) [4, 8]: Q4
CCN(CCCc1ccccc1)CCCc1ccccc1 [Alverine] | -17 | 6 | 0 | – | – | – | – | – | – | Fibrin % cell toxicity [2, 6]: 0%; Quadrant (FIG. 5b) [4, 8]: Q4
CCOC(N)=O [Ethyl carbamate] | 44 | 27 | 0 | – | – | – | – | 1 | Q4 | –
CCC(=O)c1ccc(O)cc1 [Paroxypropione] | – | – | 0 | -11 | 1 | 17 | Q4 | – | – | –
O=C1CC[C@@H](C(=O)N2CSC[C@H]2C(=O)O)N1 [Pidotimod] ([pGlu]-[Thz]-OH) | – | – | 0 | -10 | 1 | 14 | Q4 | – | – | –
O=S(=O)(c1cccc2cnccc12)N1CCCNCC1 [Fasudil Hydrochloride] | -72 | -21 | 0 | – | – | – | – | 1 | Q4 | –
CCCNC(C)C(=O)Nc1ccccc1C (stereo not shown) [Prilocaine] | – | – | 0 | -3 | 0 | 12 | Q4 | – | – | –
O=C(O)c1cc(O)c2c(c1)[C@H]([C@H]1c3cc(C(=O)O)cc(O)c3C(=O)c3c(O[C@@H]4O[C@H](CO)[C@@H](O)[C@H](O)[C@H]4O)cccc31)c1cccc(O[C@@H]3O[C@H](CO)[C@@H](O)[C@H](O)[C@H]3O)c1C2=O [Sennoside A] | – | – | – | – | 1 | – | Q4 | – | – | Fibrin % inhibition [1, 9]: −10%; LPS % inhibition [3]: 14%; LPS % cell toxicity [5]: 0%
CN1CCN(c2c(F)cc3c(=O)c(C(=O)O)cn4c3c2SCC4)CC1 [Rufloxacin Hydrochloride] | – | – | 0 | -3 | 1 | 21 | Q4 | – | – | –
CCCCOC(=O)c1ccccc1C(=O)OCCCC [Dibutyl Phthalate] | -30 | 9 | 0 | – | – | – | – | 1 | Q4 | –
CN1C(C)(C)CCCC1(C)C [Pempidine Tartrate] | – | – | 0 | -19 | 1 | 13 | Q4 | – | – | –
COc1ccc(C(=O)c2ccccc2O)c(O)c1 [Dioxybenzone] | -4 | 16 | 0 | – | – | – | – | 1 | Q4 | –
